Source: paper PMC6278366, “Synthesis and Evaluation of Anticancer Activities of Novel C-28 Guanidine-Functionalized Triterpene Acid Derivatives” (Molecules, 2018)
Where a name gives a salt, the structure may show the parent alone. Read-outs that look alike come from different tables or passages of the source.

Assays:
[1] = system: HeLa (cervical cancer) cells; assay: Cytotoxicity assay (7-AAD viability, flow cytometry), HeLa; format: cell-based, human; details: mean ± SE, at least three experiments in duplicate, viable cells
Protocol: (§1) Cells (Jurkat, K562, U937, HeLa, HEK293 and normal Fibroblasts) were purchased from Russian Cell Culture Collection (Institute of Cytology of the Russian Academy of Sciences, Saint Petersburg, Russia) and cultured according to standard mammalian tissue culture protocols and sterile technique. Human cell lines HEK293 and HeLa were obtained from the HPA Culture Collections (Salisbury, UK). All cell lines used in the study were tested and shown to be free of mycoplasma and viral contamination.
(§2) HEK293, HeLa cell lines and fibroblasts were cultured as monolayers and maintained in Dulbecco’s modified Eagle’s medium (DMEM, Gibco BRL, Waltham, MA, USA) supplemented with 10% foetal bovine serum and 1% penicillin-streptomycin solution at 37 °C in a humidified incubator under a 5% CO2 atmosphere.
(§3) Cells were maintained in RPMI 1640 (Jurkat, K562, U937) (Gibco, Thermo Fisher Scientific, Waltham, MA, USA) supplemented with 4 mM glutamine, 10% FBS (Sigma, Burlington, MA, USA) and 100 units/mL penicillin-streptomycin (Sigma). All types of cells were grown in an atmosphere of 5% CO2 at 37 °C. The cells were subcultures at 2–3 days intervals. Adherent cells (HEK293, HeLa, fibroblasts) were suspended using trypsin/EDTA and counted after they have reached 80% confluency. Cells were then seeded in 24 well plates at 5 × 10^4 cells per well and incubated overnight. Jurkat, K562, U937 cells were subcultured at 2 day intervals with a seeding density of 1 × 10^5 cells per 24 well plates in RPMI with 10% FBS.
(§4) Viability (Live/dead) assessment was performed by staining cells with 7-AAD (7-Aminoactinomycin D) (Biolegend, San Diego, CA, USA). Cells were treated of test compounds with six different concentrations (1, 5, 10, 15, 30 and 60 μM). After treatment, cells were harvested, washed 1–2 times with phosphate-buffered saline (PBS) and centrifuged at 400× g for 5 min. Cell pellets were resuspended in 200 μL of flow cytometry staining buffer (PBS without Ca^2+ and Mg^2+, 2.5% FBS) and stained with 5 μL of 7-AAD staining solutionfor 15 min at room temperature in the dark. Samples were acquired on NovoCyteTM 2000 FlowCytometry System (ACEA, San Diego, CA, USA) equipped with 488 nm argon laser. Detection of 7-AAD emission was collected through a 675/30 nm filter in FL4 channel.

[2] = system: K562 (chronic myeloid leukemia) cells; assay: Cytotoxicity assay (7-AAD viability, flow cytometry), K562; format: cell-based, human; details: at least three experiments in duplicate, viable cells, read-out: IC50 K562
Protocol: as §1, §3, §4

[3] = system: Jurkat (T-lymphoblastic leukemia) cells; assay: cells; format: cell-based; details: mean ± SE, at least three experiments in duplicate, viable cells, read-out: IC50 Jurkat
Protocol: as §1, §3, §4

normal human fibroblasts = assay: Cytotoxicity assay (7-AAD viability, flow cytometry), normal fibroblasts; format: cell-based; details: mean ± SE, at least three experiments in duplicate
Protocol: as §1, §2, §3
as §4, with “Cells were treated of test compounds with six different concentrations (1, 5, 10, 15, 30 and 60 μM).” left out

[4] = system: HEK293 (embryonic kidney) cells; assay: Cytotoxicity assay (7-AAD viability, flow cytometry), HEK293; format: cell-based, human; details: at least three experiments in duplicate, viable cells
Protocol: as §1, §2, §3, §4

Jurkat cells = assay: Annexin V/7-AAD apoptosis assay by flow cytometry; format: cell-based, human; details: 48 h; for living (vital) cells (Q7-3) / necrotic cells (Q7-1) / early apoptotic cells (Q7-4) / late apoptotic cells (Q7-2): at IC50 concentration (59 μM Dihydro BA; 4 μM 15, 15c, 18c; 8 μM 20c); for total number of apoptotic cells (early + late): at IC50 concentration (59 μM Dihydro BA; 4 μM 15c; 8 μM 20c)
Protocol: Apoptosis was determined by flow cytometric analysis of Annexin V and 7-aminoactinomycin D staining. Briefly, 200 μL of Guava Nexin reagent (Millipore, Bedford, MA, USA) was added to 5 × 10^5 cells in 200 μL, and the cells were incubated with the reagent for 20 min at room temperature in the dark. […] At the end of incubation, the cells were analyzed on NovoCyteTM 2000 FlowCytometry System (ACEA). Different states of cell death were defined as follows: normal cells are localized in the lower-left quadrant (Annexin V^−/PI^−); early apoptotic cells are in the lower-right quadrant (Annexin V^+/PI^−); late apoptotic cells and necrotic cells are in the upper-right quadrant (Annexin V^+/PI^+); and necrotic cells are in the upper-left quadrant (Annexin V^−/PI^+).
Figure 2 AnnexinV/7-AAD staining upon induction of apoptosis in Jurkat cells. […] Then, the cells were harvested, stained with Annexin V/7-AAD and analyzed by flow cytometry. The experiments were performed three times, and the results of the representative experiments are shown. The first cytogram represents an untreated cell sample (A); after incubation with dihydrobetulinic acid for 24 h (B) and for 48 h (C); after incubation with compound 15 for 24 h (D) and for 48 h (E); after incubation with compound 15c for 24 h (F) and for 48 h (G); after incubation with compound 18c for 24 h (H) and for 48 h (I); after incubation with compound 20c for 24 h (J) and for 48 h (K). Q7-1, necrotic cells; Q7-2, late apoptotic cells; Q7-3, living cells; Q7-4, early apoptotic cells. TEXT PRINTED IN THE PICTURE: (B) Dihydro BA: Q7-1 0.96% (59 μM); Q7-2 12.11% (59 μM); Q7-3 80.09% (59 μM); Q7-4 6.84% (59 μM) | (C) Dihydro BA: Q7-1 2.34% (59 μM); Q7-2 20.53% (59 μM); Q7-3 73.11% (59 μM); Q7-4 4.02% (59 μM) | (D) Compound 15: Q7-1 3.08% (4 μM); Q7-2 2.24% (4 μM); Q7-3 92.34% (4 μM); Q7-4 2.34% (4 μM) | (E) Compound 15: Q7-1 5.53% (4 μM); Q7-2 91.79% (4 μM); Q7-3 0.58% (4 μM); Q7-4 2.10% (4 μM) | (F) Compound 15c: Q7-1 1.51% (4 μM); Q7-2 2.64% (4 μM); Q7-3 84.92% (4 μM); Q7-4 10.93% (4 μM) | (G) Compound 15c: Q7-1 21.72% (4 μM); Q7-2 16.54% (4 μM); Q7-3 54.49% (4 μM); Q7-4 7.25% (4 μM) | (H) Compound 18c: Q7-1 1.48% (4 μM); Q7-2 3.70% (4 μM); Q7-3 91.14% (4 μM); Q7-4 3.67% (4 μM) | (I) Compound 18c: Q7-1 20.73% (4 μM); Q7-2 14.32% (4 μM); Q7-3 58.16% (4 μM); Q7-4 6.79% (4 μM) | (J) Compound 20c: Q7-1 3.78% (8 μM); Q7-2 1.72% (8 μM); Q7-3 92.26% (8 μM); Q7-4 2.24% (8 μM) | (K) Compound 20c: Q7-1 6.09% (8 μM); Q7-2 7.35% (8 μM); Q7-3 78.36% (8 μM); Q7-4 8.20% (8 μM) DOUBTS OF THE COPYIST ABOUT THIS PICTURE: Panel A (Control, untreated cells: Q7-1 3.75%, Q7-2 0.00%, Q7-3 96.24%, Q7-4 0.01%) left out of lines because it is not a substance / Dihydro BA panel B, Q7-3: 80.09% partly overlaid by plot points, 80.09 or 80.03 / Dihydro BA panel C, Q7-3: 73.11% partly overlaid by plot points / Compound 18c panel I, Q7-3: 58.16% small print, 58.16 or 58.18 / Compound 15 panel E, Q7-3: 0.58% small print, 0.58 or 0.56

[5] = system: U937 (histiocytic lymphoma) cells; assay: Cytotoxicity assay (7-AAD viability, flow cytometry), U937; format: cell-based, human; details: at least three experiments in duplicate, viable cells, read-out: IC50 U937
Protocol: as §1, §3, §4

[6] = Homo sapiens, HEK293, mean ± SE

Structure (SMILES): CC(=O)O[C@H]1CC[C@@]2(C)C(CC[C@]3(C)C2CC=C2C4CC(C)(C)CC[C@]4(C(=O)OCC(CO)(CO)NC(=N)N)CC[C@]23C)C1(C)C (stereo partly drawn) [Compound 20c, 3β-[2-Guanidine-3-hydroxy-2-(hydroxymethyl)propyl]-3-O-acetyl-olean-12-en-28-oate hydrochloride]
- IC50 [1]: 17 ± 0.32 µM
- IC50 ([2]; mean ± SE): 13 ± 0.45 µM
- IC50 [3]: 7.6 ± 0.33 µM
- IC50 (normal human fibroblasts): 54 ± 0.12 µM
- IC50 ([4]; mean ± SE): 19 ± 0.17 µM
- living (vital) cells (Q7-3) (Jurkat cells): 78.4%
- necrotic cells (Q7-1) (Jurkat cells): 6.1%
- total number of apoptotic cells (early + late) (Jurkat cells): about 15.5%
- IC50 ([5]; mean ± SE): 6.8 ± 0.11 µM

Structure (SMILES): CC(=O)O[C@H]1CC[C@@]2(C)C(CC[C@]3(C)C2CCC2C4C(C(C)C)CC[C@]4(C(=O)NCCNC(=N)N)CC[C@]23C)C1(C)C (stereo partly drawn) (as salt: hydrochloride) [Compound 10b, 3β-N-(2-Ethylgyanidine)-3-O-acetyl-lupane-28-amide hydrochloride]
- melting point: 192 to 194 °C

Structure (SMILES): CC(=O)O[C@H]1CC[C@@]2(C)C(CC[C@]3(C)C2CCC2C4C(C(C)C)CC[C@]4(C(=O)NCCN)CC[C@]23C)C1(C)C (stereo partly drawn) [Compound 5, 3β-N-(2-Aminoethyl)-3-O-acetyl-lupane-28-amide]
- melting point: 120 to 122 °C
- IC50 ([1]; Homo sapiens, HeLa): 3.9 ± 0.41 µM
- IC50 ([2]; Homo sapiens, K562, mean ± SE): 2.8 ± 0.23 µM
- IC50 ([3]; Homo sapiens, Jurkat): 2.3 ± 0.11 µM
- IC50 (normal human fibroblasts; Homo sapiens, Fibroblast): 5.3 ± 0.27 µM
- IC50 [4, 6]: 4.8 ± 0.25 µM
- IC50 ([5]; Homo sapiens, U-937, mean ± SE): 1.9 ± 0.34 µM

Structure (SMILES): CC(=O)O[C@H]1CC[C@@]2(C)C(CC[C@]3(C)C2CC=C2C4[C@@H](C)[C@H](C)CC[C@]4(C(=O)OCC(CO)(CO)NC(=N)N)CC[C@]23C)C1(C)C (single isomer, unassigned) [Compound 18c, 3β-[2-Guanidine-3-hydroxy-2-(hydroxymethyl)propyl]-3-O-acetyl-urs-12-en-28-oate hydrochloride]
- IC50 [1]: 12 ± 0.29 µM
- IC50 ([2]; mean ± SE): 11 ± 0.18 µM
- IC50 [3]: 3.8 ± 0.23 µM
- IC50 (normal human fibroblasts): 51 ± 0.26 µM
- IC50 ([4]; mean ± SE): 14 ± 0.34 µM
- early apoptotic cells (Q7-4) (Jurkat cells): 6.8%
- late apoptotic cells (Q7-2) (Jurkat cells): 14.3%
- necrotic cells (Q7-1) (Jurkat cells): 20.7%
- IC50 ([5]; mean ± SE): 5.3 ± 0.29 µM

Structure (SMILES): CC(C)[C@@H]1CC[C@]2(C(=O)O)CC[C@]3(C)[C@H](CC[C@@H]4[C@@]5(C)CC[C@H](O)C(C)(C)[C@@H]5CC[C@]43C)[C@@H]12 [Dihydro BA, 20,29-dihydrobetulinic acid, reference compound]
- IC50 ([1]; Homo sapiens, HeLa): 132 ± 0.47 µM
- IC50 ([2]; Homo sapiens, K562, mean ± SE): 44 ± 0.24 µM
- IC50 ([3]; Homo sapiens, Jurkat): 59 ± 0.31 µM
- IC50 (normal human fibroblasts; Homo sapiens, Fibroblast): 517 ± 0.26 µM
- IC50 [4, 6]: 128 ± 0.32 µM
- early apoptotic cells (Q7-4) (Jurkat cells): 4.0%
- late apoptotic cells (Q7-2) (Jurkat cells): 20.5%
- living (vital) cells (Q7-3) (Jurkat cells): 73.1%
- total number of apoptotic cells (early + late) (Jurkat cells): around 24%
- IC50 ([5]; Homo sapiens, U-937, mean ± SE): 39 ± 0.38 µM

Structure (SMILES): CC(=O)O[C@H]1CC[C@@]2(C)C(CC[C@]3(C)C2CCC2C4C(C(C)C)CC[C@]4(C(=O)NCCN(CCNC(=N)N)CCNC(=N)N)CC[C@]23C)C1(C)C (single isomer, unassigned) (as salt: trifluoroacetate) [Compound 12a, 3β-N-[2-(N,N′-bis-Ethylgyanidine)-aminoethyl]-3-O-acetyl-lupane-28-amide trifluoroacetate]
- melting point: 116 to 118 °C

Structure (SMILES): CC(=O)O[C@H]1CC[C@@]2(C)C(CC[C@]3(C)C2CCC2C4C(C(C)C)CC[C@]4(C(=O)NCCCN4CCN(CCCNC(=N)N)CC4)CC[C@]23C)C1(C)C (stereo partly drawn) (as salt: trifluoroacetate) [Compound 13a, 3β-N-{[3-(3-Propylguanidine)piperazinyl]propyl}-3-O-acetyl-lupane-28-amide trifluoroacetate]
- melting point: 92 to 94 °C

Structure (SMILES): CC(=O)O[C@H]1CC[C@@]2(C)C(CC[C@]3(C)C2CCC2C4C(C(C)C)CC[C@]4(C(=O)NCCN(CCNC(=N)N)CCNC(=N)N)CC[C@]23C)C1(C)C (single isomer, unassigned) (as salt: hydrochloride) [Compound 12b, 3β-N-[2-(N,N′-bis-Ethylgyanidine)-aminoethyl]-3-O-acetyl-lupane-28-amide dihydrochloride]
- melting point: 198 to 200 °C
